According to US9023356B2, “Treatment method using EGFR antibodies and SRC inhibitors and related formulations” (Ludwig Institute for Cancer Research Ltd, priority 2007, dated 2015):
Read-outs that look alike come from different tables or passages of the source.

Columns and labels:
[1] = tested on: Glioma cell lines in vitro; conditions: full text: Resistant glioma expresses IGFR-1 which is further up-regulated by AG1478; effect appears mediated through PI3-K/Akt; single cell line in vitro; cited from earlier work
[2] = tested on: Multiple cell lines in vitro; conditions: full text: Sensitivity correlated with wt EGFR number; no in vivo data; cited from earlier work
[3] = tested on: Multiple cell lines in vitro; conditions: full text: Sustained signaling through Akt or Erk may cause resistance; no in vivo data; cited from earlier work
[4] = tested on: BT474 breast and MKN7 gastric cancer cells in vitro; conditions: full text: Activation of erbB2/3 heterodimers by heregulin generated resistance; no in vivo data; cited from earlier work
Patients with NSCLC [5] = conditions: full text: A secondary mutation in EGFR kinase causes resistance; cited from earlier work
[6] = tested on: de2-7 EGFR phosphorylation in U87MG glioma cells; assay: Immunoblotting of de2-7 EGFR phosphorylation after Src-family kinase inhibitors; type: cell-based; conditions: 10 μM, 30 minutes or 24 h, serum starved cells
Procedure: FIG. 7A-7C. Interaction between de2-7 EGFR and Src. (A) Cells were serum starved overnight prior to treatment with 10 μM PP1 or PP2 or vehicle (DMSO) for 30 minutes or 24 h prior to immunoprecipitation with mAb528, mAb806 or an irrelevant isotype control. Immunoblotting was performed with an antibody specific for Y845 of the EGFR, while total de2-7 EGFR was visualized with the rabbit c-terminal polyclonal antibody. Results shown are representative of four independent experiments. […] Mice were treated with 1 mg mAb 806 three times per week for two weeks (days 18, 20, 22, 25, 27 and 29).
Cells were lysed in cold lysis buffer (30 mM HEPES, 150 mM NaCl, 10 mM NaF, 1% Triton X-100, 200 μM NaO3V, 0.4% H2O2 and the protease inhibitor cocktail set 1 (Calbiochem, San Diego, Calif.) containing 500 μM AEBSF, 150 nM Aprotinin, 1 μM E-64 protease inhibitor, 0.5 mM EDTA and 1 μM Leupeptin, pH 7.4). Lysates were immunoprecipitated with the mAb 806 or 528 and the resultant precipitates analyzed by immunoblotting as described by us in detail (21).
Activation of the wt EGFR leads to the transient activation of Src kinase. In a synergistic manner, activation of Src leads to phosphorylation tyrosine 845 (Y845) on the EGFR, which is not an auto-phosphorylation site rather a target for Src phosphorylation (24). Using an antibody specific to Y845 we examined the phosphorylation of Y845 in the de2-7 EGFR.

[7] = tested on: Patients with colorectal cancer; conditions: full text: Response correlated with increase in EGFR copy number; small sample numbers; cited from earlier work
[8] = tested on: Multiple cell lines in vitro and xenografts; conditions: full text: More difficult to inhibit the phosphorylation of EGFR in the presence of ErbB2; cited from earlier work
[9] = tested on: Multiple cell lines in vitro; conditions: full text: Sensitivity correlated with wt EGFR number. Constitutive active MAPK increased resistance; no in vivo data; cited from earlier work
[10] = tested on: A431 and MDA-468 breast cancer cells in vitro; conditions: full text: Sustained signaling through Akt causes resistance. Presence of PTEN increases effectiveness of EGFR therapeutics; no in vivo data; cited from earlier work
Patients with NSCLC [11] = conditions: full text: Patients with activating mutations in the EGFR kinase domain more likely to respond; not all patients with mutations respond; cited from earlier work
[12] = tested on: Multiple cell lines in vitro and xenografts; conditions: full text: Sensitivity correlated with wt EGFR number; cited from earlier work

Q: For `COc1cc2ncnc(Nc3cccc(Cl)c3)c2cc1OC` [AG1478], which Observation [1] is on record?
A: Resistant glioma

Q: What does the source list for `COc1cc2ncnc(Nc3cccc(Br)c3)c2cc1OC` [PD153035]?
A: Observation [2]: Sensitivity correlated; Observation [3]: Sustained signaling

Q: For `Cc1[nH]c2ncnc(Nc3cccc(Cl)c3)c2c1C` [CGP59326], which Observation [4] is on record?
A: Activation of erbB2/3

Q: Which Observation (Patients with NSCLC [5]) does the source give for `C#Cc1cccc(Nc2ncnc3cc(OCCOC)c(OCCOC)cc23)c1` [OSI-774] here?
A: A secondary mutation

Q: Which “Phosphorylation at Y845 of de2-7 EGFR” value [6] does the source give for `CC(C)(C)n1nc(-c2ccc(Cl)cc2)c2c(N)ncnc21` [PP2, (4-chlorophenyl)-7-(t-butyl)pyrazolo[3,4-d]-pyrimidine] here?
A: rapidly blocked

Q: And the “autophosphorylation site at Y1173 of de2-7 EGFR” value [6]?
A: relatively unaffected

Q: Which Observation [7] does the source give for “ABX: monoclonal antibody directed to the EGFR” here?
A: Response correlated

Q: What does the source list for `COc1cc2ncnc(Nc3ccc(F)c(Cl)c3)c2cc1OCCCN1CCOCC1` [ZD1839]?
A: Observation [8]: More difficult to inhibit; Observation [9]: Sensitivity correlated; Observation [3]: Sustained signaling; Observation [10]: Sustained signaling; Observation (Patients with NSCLC [11]): Patients with activating; Observation (Patients with NSCLC [5]): A secondary mutation

B1: EMD72000: EGFR inhibitor listed in Table 1 (antibody, chains of the INN, looked up, V domains shown)
VH: QVQLVQSGAEVKKPGASVKVSCKASGYTFTSHWMHWVRQAPGQGLEWIGEFNPSNGRTNYNEKFKSKATMTVDTSTNTAYMELSSLRSEDTAVYYCASRDYDYDGRYFDYWGQGTLVTVSS
VL: DIQMTQSPSSLSASVGDRVTITCSASSSVTYMYWYQQKPGKAPKLLIYDTSNLASGVPSRFSGSGSGTDYTFTISSLQPEDIATYYCQQWSSHIFTFGQGTKVEIK
Q: With B1 as the molecule, how does the Observation [12] read?
A: Sensitivity correlated
